The values that follow come from US20240139167A1, “LYSOSOME-ASSOCIATED MEMBRANE PROTEIN TARGETING COMPOUNDS AND USES THEREOF” (HADASIT MEDICAL RESEARCH SERVICES AND DEVELOPMENT LTD., priority 2021, published 2024).

Structures are written as SMILES.

This experiment has as its system PD patient-derived skin fibroblasts. Nature of the experiment: Autophagic flux in Pompe disease fibroblasts. The class given is cell-based, human. Here is the method:
FIG. 15 includes a micrograph and a vertical bar graph showing autophagic flux in PD patient-derived skin fibroblasts, serum starved and treated (or not) with 50 μM 144DG11 (indicated as comp. A).
144DG11 can activate autophagy in the lysosomal storage disease (LSD) Pompe disease (PD) in which autophagy is perturbed (FIG. 15). […] This ratio serves as the most accepted marker for autophagy and autophagic flux. […] These observations indicate that, as in the GSD APBD, 144DG11 can activate autophagy also in the typical LSD PD in which autophagy is disturbed.

As for `CC[C@]1(O)C[C@@H]2CN(CCc3c([nH]c4ccccc34)[C@@](C(=O)OC)(c3cc4c(cc3OC)N(C)[C@H]3[C@@](O)(C(=O)OC)[C@H](OC(C)=O)[C@]5(CC)C=CCN6CC[C@]43[C@@H]65)C2)C1` [vinblastine, reference compound], the “ratio of LC3II to LC3I” value was “increased”.
